Laboratory results as given in PMC9694544, “Conteltinib (CT-707) in patients with advanced ALK-positive non-small cell lung cancer: a multicenter, open-label, first-in-human phase 1 study” (BMC Medicine, 2022).

Tested on: patients with ALK-positive NSCLC
Assay: Phase 1 safety assessment (TRAEs by CTCAE 4.03, DLT, MTD, RP2D)
Format: in vivo, human
Description: In the dose-escalation phase, the dose was escalated sequentially from a low to a high level with a 3 + 3 dose-escalation scheme based on the modified Fibonacci method. The starting dose for conteltinib was 50 mg orally quaque die (QD). Dose escalation proceeded to the next six cohorts of 100 mg, 200 mg, 300 mg, 450 mg, 600 mg, and 800 mg QD. For each dose, there was a PK lead-in phase where a single dose was given 7 days before cycle 1 day 1. Then, each dose was taken continuously in a 28-day cycle. The first cycle was for dose-limiting toxicity (DLT) investigation. When one of three patients experienced a DLT in a dose cohort, three additional patients were enrolled in the same dose cohort to assess the dose level in a total of six patients. All patients received conteltinib until disease progression, unacceptable toxicity, or withdrawal of consent. Patients received follow-up safety assessments for 30 days (±7 days) after the last conteltinib dose.
In the dose-expansion phase, each dose was taken continuously in a 28-day cycle. At the end of each cycle, a safety evaluation was conducted. If patients met the criteria to enter the next cycle, treatment with conteltinib was continued for subsequent cycles. All patients received conteltinib until disease progression, unacceptable toxicity, or withdrawal of consent. Patients received follow-up safety assessments for 30 days (±7 days) after the last dose of conteltinib.
The safety of conteltinib was assessed in safety set (SS) which was based on the National Cancer Institute Common Terminology Criteria for Adverse Events (CTCAE) version 4.03, laboratory tests, vital signs, ECG, and clinical observations. […] Adverse events (AEs) were judged to be treatment-related or not by investigators.
DLTs were AEs occurring in the first cycle of treatment (28 days) that were attributed to conteltinib, and the criteria were grade 4 neutropenia lasting ≥ 7 days, febrile neutropenia, grade 3 thrombocytopenia, grade 3 non-hematologic toxicity, and any conteltinib-related toxicity resulting in treatment delay > 2 weeks or discontinuation of conteltinib treatment at the assigned dose level. Besides, grade 3 nausea, vomiting, or diarrhea for ≥ 3 days or grade 4 nausea, vomiting, or diarrhea of any duration was considered as a DLT. The MTD was defined as the dose of conteltinib that would be closest to but not higher than a 33% probability of a DLT.

COc1cc(N2CCC(N3CCN(C)CC3)CC2)ccc1Nc1nc2c(c(Nc3ccccc3S(=O)(=O)NC(C)C)n1)CCN2 [Conteltinib]
16 (88.9) n (%): TRAE Diarrhea (600 mg QD (n=18), Grade 1–2)
1 (25.0) n (%): TRAE AST elevated (800 mg QD (n=4), Grade 1–2) | TRAE Appetite decreased (800 mg QD (n=4), Grade 1–2) | TRAE Hypercholesterolemia (800 mg QD (n=4), Grade 1–2) | TRAE Hyperglycemia (800 mg QD (n=4), Grade 1–2) | TRAE Hypoalbuminemia (800 mg QD (n=4), Grade 1–2) | TRAE Nausea (800 mg QD (n=4), Grade 1–2)
3 (21.4) n (%): TRAE Hyperuricemia (450 mg QD (n=14), Grade 1–2) | TRAE Weight loss (450 mg QD (n=14), Grade 1–2) | TRAE γ-GGT elevated (450 mg QD (n=14), Grade 1–2) | Patients with any TRAE (450 mg QD (n=14), Grade ≥ 3) | TRAE γ-GGT elevated (450 mg QD (n=14), Grade ≥ 3)
10 (55.6) n (%): TRAE Hyperuricemia (600 mg QD (n=18), Grade 1–2)
18 (100) n (%): Patients with any TRAE (600 mg QD (n=18), Grade 1–2)
1 (5.6) n (%): TRAE Serum creatinine elevated (600 mg QD (n=18), Grade ≥ 3) | TRAE γ-GGT elevated (600 mg QD (n=18), Grade ≥ 3)
3 (75.0) n (%): Patients with any TRAE (800 mg QD (n=4), Grade 1–2) | TRAE Abdominal pain (800 mg QD (n=4), Grade 1–2) | TRAE Diarrhea (800 mg QD (n=4), Grade 1–2) | TRAE Hyperuricemia (800 mg QD (n=4), Grade 1–2)
8 (44.4) n (%): TRAE AST elevated (600 mg QD (n=18), Grade 1–2) | TRAE Hypertriglyceridemia (600 mg QD (n=18), Grade 1–2) | TRAE Proteinuria (600 mg QD (n=18), Grade 1–2) | TRAE Serum creatinine elevated (600 mg QD (n=18), Grade 1–2) | TRAE Weight loss (600 mg QD (n=18), Grade 1–2) | TRAE γ-GGT elevated (600 mg QD (n=18), Grade 1–2)
2 (50.0) n (%): TRAE Hypertriglyceridemia (800 mg QD (n=4), Grade 1–2) | TRAE Proteinuria (800 mg QD (n=4), Grade 1–2) | TRAE Serum creatinine elevated (800 mg QD (n=4), Grade 1–2) | TRAE Vomiting (800 mg QD (n=4), Grade 1–2) | TRAE Weight loss (800 mg QD (n=4), Grade 1–2) | TRAE γ-GGT elevated (800 mg QD (n=4), Grade 1–2)
5 (27.8) n (%): Patients with any TRAE (600 mg QD (n=18), Grade ≥ 3)
2 (14.3) n (%): TRAE Hypertriglyceridemia (450 mg QD (n=14), Grade 1–2) | TRAE Hypoalbuminemia (450 mg QD (n=14), Grade 1–2)
4 (22.2) n (%): TRAE Hypercholesterolemia (600 mg QD (n=18), Grade 1–2)
10 (71.4) n (%): TRAE Serum creatinine elevated (450 mg QD (n=14), Grade 1–2)
7 (38.9) n (%): TRAE ALT elevated (600 mg QD (n=18), Grade 1–2) | TRAE Abdominal pain (600 mg QD (n=18), Grade 1–2) | TRAE Appetite decreased (600 mg QD (n=18), Grade 1–2)
1 (7.1) n (%): TRAE Hypercholesterolemia (450 mg QD (n=14), Grade 1–2) | TRAE Hyperglycemia (450 mg QD (n=14), Grade 1–2) | TRAE Proteinuria (450 mg QD (n=14), Grade 1–2)
2 (11.1) n (%): TRAE Abdominal pain upper (600 mg QD (n=18), Grade 1–2) | TRAE Conjugated bilirubin elevated (600 mg QD (n=18), Grade 1–2) | TRAE Diarrhea (600 mg QD (n=18), Grade ≥ 3)
0 (0.0) n (%): TRAE ALT elevated (450 mg QD (n=14), Grade ≥ 3) | TRAE AST elevated (450 mg QD (n=14), Grade ≥ 3) | TRAE Abdominal pain (450 mg QD (n=14), Grade ≥ 3) | TRAE Abdominal pain upper (450 mg QD (n=14), Grade ≥ 3) | TRAE Appetite decreased (450 mg QD (n=14), Grade ≥ 3) | TRAE Conjugated bilirubin elevated (450 mg QD (n=14), Grade ≥ 3) | TRAE Diarrhea (450 mg QD (n=14), Grade ≥ 3) | TRAE Hypercholesterolemia (450 mg QD (n=14), Grade ≥ 3) | TRAE Hyperglycemia (450 mg QD (n=14), Grade ≥ 3) | TRAE Hypertriglyceridemia (450 mg QD (n=14), Grade ≥ 3) | TRAE Hyperuricemia (450 mg QD (n=14), Grade ≥ 3) | TRAE Hypoalbuminemia (450 mg QD (n=14), Grade ≥ 3) | TRAE Nausea (450 mg QD (n=14), Grade ≥ 3) | TRAE Proteinuria (450 mg QD (n=14), Grade ≥ 3) | TRAE Serum creatinine elevated (450 mg QD (n=14), Grade ≥ 3) | TRAE Vomiting (450 mg QD (n=14), Grade ≥ 3) | TRAE Weight loss (450 mg QD (n=14), Grade ≥ 3) | TRAE ALT elevated (600 mg QD (n=18), Grade ≥ 3) | TRAE AST elevated (600 mg QD (n=18), Grade ≥ 3) | TRAE Abdominal pain (600 mg QD (n=18), Grade ≥ 3) | TRAE Abdominal pain upper (600 mg QD (n=18), Grade ≥ 3) | TRAE Appetite decreased (600 mg QD (n=18), Grade ≥ 3) | TRAE Conjugated bilirubin elevated (600 mg QD (n=18), Grade ≥ 3) | TRAE Hypercholesterolemia (600 mg QD (n=18), Grade ≥ 3) | TRAE Hyperglycemia (600 mg QD (n=18), Grade ≥ 3) | TRAE Hypertriglyceridemia (600 mg QD (n=18), Grade ≥ 3) | TRAE Hyperuricemia (600 mg QD (n=18), Grade ≥ 3) | TRAE Hypoalbuminemia (600 mg QD (n=18), Grade ≥ 3) | TRAE Nausea (600 mg QD (n=18), Grade ≥ 3) | TRAE Proteinuria (600 mg QD (n=18), Grade ≥ 3) | TRAE Vomiting (600 mg QD (n=18), Grade ≥ 3) | TRAE Weight loss (600 mg QD (n=18), Grade ≥ 3) | TRAE ALT elevated (800 mg QD (n=4), Grade 1–2) | TRAE Abdominal pain upper (800 mg QD (n=4), Grade 1–2) | TRAE Conjugated bilirubin elevated (800 mg QD (n=4), Grade 1–2) | Patients with any TRAE (800 mg QD (n=4), Grade ≥ 3) | TRAE ALT elevated (800 mg QD (n=4), Grade ≥ 3) | TRAE AST elevated (800 mg QD (n=4), Grade ≥ 3) | TRAE Abdominal pain (800 mg QD (n=4), Grade ≥ 3) | TRAE Abdominal pain upper (800 mg QD (n=4), Grade ≥ 3) | TRAE Appetite decreased (800 mg QD (n=4), Grade ≥ 3) | TRAE Conjugated bilirubin elevated (800 mg QD (n=4), Grade ≥ 3) | TRAE Diarrhea (800 mg QD (n=4), Grade ≥ 3) | TRAE Hypercholesterolemia (800 mg QD (n=4), Grade ≥ 3) | TRAE Hyperglycemia (800 mg QD (n=4), Grade ≥ 3)
6 (33.3) n (%): TRAE Hyperglycemia (600 mg QD (n=18), Grade 1–2)
6 (42.9) n (%): TRAE Nausea (450 mg QD (n=14), Grade 1–2) | TRAE Vomiting (450 mg QD (n=14), Grade 1–2)
9 (50.0) n (%): TRAE Nausea (600 mg QD (n=18), Grade 1–2)
3 (16.7) n (%): TRAE Hypoalbuminemia (600 mg QD (n=18), Grade 1–2)
11 (61.1) n (%): TRAE Vomiting (600 mg QD (n=18), Grade 1–2)
One: DLT events (600 mg QD, cycle 1, dose-escalation phase, grade 3 serum creatinine elevated)
